Broadly, the MIC is the lowest concentration found to suppress growth. A low value points to a more susceptible organism.

Common to all, as to test: ≥ marks a high value that may be exact or a test limit, other limits are often not marked, values filed in µg/mL are converted to µM
Experiment [1] has as its system Aeromonas hydrophila ATCC 7966.
Experiment [2] relates to Listeria monocytogenes ATCC 19115.
The test system of experiment [3] is Staphylococcus aureus ATCC 6538.
The test system of experiment [4] is Vibrio alginolyticus ATCC 17749.
Experiment [5] has as its system Vibrio anguillarum ATCC 19264.
Experiment [6] concerns Vibrio parahaemolyticus ATCC 33847.
For experiment [7], the system named is Bacillus subtilis CMCC 63501.
Experiment [8] has as its system Enterococcus faecalis ATCC 29212.
The subject of experiment [9] is Escherichia coli ATCC 25922.
The test system of a further experiment is Escherichia coli UB1005.
In experiment [10] the test system is Pseudomonas aeruginosa ATCC 27853.
Experiment [11] deals with Pseudomonas aeruginosa PAO1.
Experiment [12] concerns Salmonella enterica subsp. enterica serovar Typhimurium ATCC 14028.
The subject of experiment [13] is Salmonella typhimurium ATCC 7731.
In experiment [14] the test system is Staphylococcus aureus ATCC 29213.
Experiment [15] has as its system Staphylococcus epidermidis ATCC 12228.
Experiment [16] deals with Acinetobacter baumannii ATCC 19606.
In experiment [17] the test system is Klebsiella pneumoniae ATCC 13883.
Experiment [18] deals with Salmonella enterica subsp. enterica serovar Choleraesuis ATCC 10708.
Experiment [19] concerns Staphylococcus aureus ATCC 33591.
Experiment [20] deals with Staphylococcus aureus ATCC 43300.

In brackets after ≈: the same amount, converted by molar mass. Several values for one entry are separate records, joined by “and”; a condition that tells them apart may be missing. Equal values may be shown once. Bounds are passed on as bounds.

Take `CC(C)C[C@H](N)C(=O)NCC(=O)NCC(=O)N[C@@H](CC(=O)O)C(=O)N[C@@H](CC(N)=O)C(=O)N[C@@H](Cc1ccc(O)cc1)C(=O)NCC(=O)N[C@H](C(=O)N[C@@H](Cc1ccccc1)C(=O)N[C@@H](CO)C(=O)NCC(=O)N[C@@H](CO)C(=O)N[C@@H](CC(N)=O)C(=O)NCC(=O)N[C@@H](CC(N)=O)C(=O)N[C@@H](CC(N)=O)C(=O)N[C@@H](Cc1ccccc1)C(=O)N[C@@H](CCC(N)=O)C(=O)N[C@@H](Cc1cnc[nH]1)C(=O)NCC(=O)N[C@@H](CO)C(=O)N[C@@H](CC(N)=O)C(=O)O)[C@@H](C)O` [LGGDNYGTFSGSNGNNFQHGSN]: the MIC in [1] is not below 44.6 µM; in experiment [2], 1.39 µM (≈ 3.13 µg/mL); in experiment [3], 2.78 µM (≈ 6.25 µg/mL); in experiment [4] it was not below 44.6 µM; in experiment [5], not below 44.6 µM; in experiment [6], 22.3 µM (≈ 50 µg/mL).

For the molecule `CC[C@H](C)[C@H](NC(=O)[C@H](CCCCN)NC(=O)[C@H](CCCCN)NC(=O)[C@H](Cc1ccccc1)NC(=O)[C@H](CC(C)C)NC(=O)[C@H](CCCCN)NC(=O)[C@H](Cc1c[nH]c2ccccc12)NC(=O)[C@H](CCCCN)NC(=O)[C@@H](NC(=O)[C@H](CCCN=C(N)N)NC(=O)[C@@H](NC(=O)[C@H](CCCN=C(N)N)NC(=O)[C@@H](NC(=O)[C@H](CCCN=C(N)N)NC(=O)[C@@H](N)Cc1ccccc1)[C@@H](C)CC)C(C)C)C(C)C)C(N)=O` [FRIRVRVKWKLFKKI], the MIC was 1 µM (≈ 2.02 µg/mL) in experiment [7]; 1 µM (≈ 2.02 µg/mL) in experiment [8]; 2 µM and 4 µM in experiment [9]; 2 µM (≈ 4.03 µg/mL) against Escherichia coli UB1005; 2 µM (≈ 4.03 µg/mL) in experiment [10]; 2 µM (≈ 4.03 µg/mL) in experiment [11]. The MIC in [12] is 4 µM (≈ 8.07 µg/mL); in experiment [13], 4 µM (≈ 8.07 µg/mL); in experiment [14], 2 µM and 4 µM; in experiment [15], 0.5 µM (≈ 1.01 µg/mL).

On to `CC[C@H](C)[C@H](NC(=O)[C@H](C)NC(=O)[C@H](CO)NC(=O)[C@@H]1CCCN1C(=O)[C@@H](NC(=O)[C@H](CC(C)C)NC(=O)[C@H](CO)NC(=O)[C@H](Cc1ccccc1)NC(=O)[C@H](CC(C)C)NC(=O)[C@@H](N)Cc1ccccc1)[C@@H](C)CC)C(=O)NCC(=O)NCC(=O)N[C@@H](CC(C)C)C(=O)N[C@H](C(=O)N[C@@H](CO)C(=O)N[C@@H](C)C(=O)N[C@@H](Cc1ccccc1)C(=O)N[C@@H](CCCCN)C(=O)O)[C@@H](C)CC` [FLFSLIPSAIGGLISAFK], for which the MIC in experiment [16] is 20 µM (≈ 37.6 µg/mL); in experiment [9], 50 µM (≈ 94.1 µg/mL); in [17] it was not below 60 µM; in experiment [10], 40 µM (≈ 75.3 µg/mL); in experiment [18] it was not below 60 µM; in experiment [14], 5 µM (≈ 9.41 µg/mL). The MIC in [19] was determined as 5 µM (≈ 9.41 µg/mL); in experiment [20], 5 µM (≈ 9.41 µg/mL); in experiment [15], 7.5 µM (≈ 14.1 µg/mL).

The record behind these values is DBAASP.
